{"source": "patent US20220312771A1", "about": "“BIOCIDAL COMPOSITE MATERIAL” (PENNOG LIMITED, priority 2019, published 2022)", "system": "Chlorella sp.", "assay": "Growth of Chlorella sp. in Jaworskis Medium with different concentrations of copper", "format": "cell-based", "details": "14 days", "protocol": "Fresh water algae Chlorella sp. cultivated at between 10° C. and 20° C. for 14 days on Jaworskis Medium (Table below) was inoculated into fresh, sterile Jaworskis Medium (prepared as per Table 11) containing copper sulphate solution and copper-containing soak solutions. The soak solution was obtained from the third soak of the second cycle of phototreated MSMCu from Example 3. The extent of growth of Chlorella sp. was observed after a further 14 days (Table 12).\nAfter 14 days in different concentrations of copper.", "data": [{"compound": "O=S(=O)([O-])[O-].[Cu+2]", "note": "[Copper sulphate solution, copper sulphate]", "values": [{"measurement": "Growth of Chlorella sp., Abs 665 nm", "setting": "copper concentration 1 μg/L", "value": 0.137}, {"measurement": "Growth of Chlorella sp., Abs 780 nm", "setting": "copper concentration 1 μg/L", "value": 0.118}, {"measurement": "Growth of Chlorella sp., Abs 665 nm", "setting": "copper concentration 2 μg/L", "value": 0.143}, {"measurement": "Growth of Chlorella sp., Abs 780 nm", "setting": "copper concentration 2 μg/L", "value": 0.128}, {"measurement": "Growth of Chlorella sp., Abs 665 nm", "setting": "copper concentration 5 μg/L", "value": 0.103}, {"measurement": "Growth of Chlorella sp., Abs 780 nm", "setting": "copper concentration 5 μg/L", "value": 0.096}, {"measurement": "Growth of Chlorella sp., Abs 665 nm", "setting": "copper concentration 7 μg/L", "value": 0.081}, {"measurement": "Growth of Chlorella sp., Abs 780 nm", "setting": "copper concentration 7 μg/L", "value": 0.077}, {"measurement": "Growth of Chlorella sp., Abs 665 nm", "setting": "copper concentration 9 μg/L", "value": 0.092}, {"measurement": "Growth of Chlorella sp., Abs 780 nm", "setting": "copper concentration 9 μg/L", "value": 0.077}]}]}
